The target of assay [1] is PAF receptor (Human Platelet Membrane Receptors) (Homo sapiens, UniProt P25105).
Method: Inhibition of ^3 H-PAF Binding to Human Platelet Membrane Receptors
Receptor Preparation: Ten units of in-dated human packed platelets, each containing 45-65 ml platelet rich-plasma, were purchased from a commercial blood bank. Disposable plasticware was used throughout for receptor preparation. The units were pooled and a 1 ml aliquot was removed for determination of platelet concentration, using a Coulter Counter. […] Protein content was determined by a fluorescamine protein assay.
Assay Methods: Receptor Characterization--Each receptor preparation was evaluated to determine the number of receptor populations, the number of PAF receptor equivalents/mg protein and the dissociation constant (KD) for PAF binding. This required 2-3 experiments in which the protein concentration was held constant and the ^3 H-PAF ligand concentration was varied from approximately 0.10-2.5 nM and the data was analyzed by Scatchard methodology. […]
Assay Methods: Routine Assay of Compounds--The compounds were weighed precisely and solubilized in quantities of DMSO such that a 5 μl aliquot in the incubate would deliver the desired compound concentration. Compounds tested for the first time in this assay were evaluated at a concentration of 50 μM in the incubation medium. […]
Assay [2] relates to PAF-induced secretion of [^3 H]serotonin-labeled rabbit platelets. The assay is described as follows: PAF-induced platelet secretion ([^3 H]serotonin). The conditions noted are these: Oryctolagus cuniculus, washed rabbit platelets, antagonist 60 sec before PAF (0.2 nM to 0.2 μM), read 60 sec after PAF. It is filed as cell-based. Here is the method:
(§1) PAF-induced platelet aggregation and secretion: Washed, [^3 H]serotonin labeled rabbit platelets were prepared as previously described in COX, C. P , J. LINDEN and S. I. SAID: VIP elevates platelet cyclic AMP (cAMP) levels and inhibits in vitro platelet activation induced by platelet-activating factor (PAF). Peptides 5:25-28, 1984, and maintained in an atmosphere of 5% CO2 at 37° C. until used in the bioassay. Aliquots of platelets (2.5×10^8 /ml) were incubated with either an antagonist of PAF or the appropriate vehicle for 60 sec prior to the addition of PAF (0.2 nM to 0.2 μM). Aggregation was continuously monitored on a strip-chart recorder and recorded as the height of the tracing at 60 sec after the addition of PAF. Secretion of [^3 H] serotonin was measured in a sample of the platelet suspension removed at 60 sec after the addition of PAF. The percent inhibition of aggregation and secretion was calculated by comparing antagonist-treated platelets with the appropriate vehicle-treated control platelets. Each combination of antagonist and PAF was repeated using different platelet preparations. IC50 values were determined by inspection of the dose-response curves.

For assay [3], the system named is PAF-induced aggregation of washed rabbit platelets. The assay is described as follows: PAF-induced platelet aggregation. It is filed as cell-based. Conditions: Oryctolagus cuniculus, antagonist 60 sec before PAF (0.2 nM to 0.2 μM), read 60 sec after PAF. On the procedure:
as §1

Structures are written as SMILES.

Chain of PAF receptor (Human Platelet Membrane Receptors) (P25105 whole entry): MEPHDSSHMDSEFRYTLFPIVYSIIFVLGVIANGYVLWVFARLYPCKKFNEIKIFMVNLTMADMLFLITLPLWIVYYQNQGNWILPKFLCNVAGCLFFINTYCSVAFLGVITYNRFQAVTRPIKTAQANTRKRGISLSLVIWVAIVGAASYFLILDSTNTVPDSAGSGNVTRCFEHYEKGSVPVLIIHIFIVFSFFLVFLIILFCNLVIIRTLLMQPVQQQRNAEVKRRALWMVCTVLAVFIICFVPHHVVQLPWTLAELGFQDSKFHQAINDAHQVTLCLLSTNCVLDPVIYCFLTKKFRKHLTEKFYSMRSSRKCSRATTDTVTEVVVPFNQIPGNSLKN

A word on the IC50: it is the concentration needed to halve the response being measured. Compound `O=C(c1ccc(Cn2ccc3ncnc-3c2)nc1)N(C1CCCC1)C1CCCC1` [Example 1, N,N-dicyclopentyl-6-(5H-imidazo[4,5-c]pyridin-5-yl-methyl)-3-pyridinecarboxamide] showed an IC50 in assay [1] of 0.88 µM.
On to `CN(C(=O)c1ccc(Cn2ccc3ncnc-3c2)o1)C1CCCCC1` [Example 2, N-cyclohexyl-5-[(5H-imidazo[4,5-c]pyridin-5-yl)methyl]N-methyl-2-furancarboxamide], for which the IC50 in assay [2] is 50 µM; in assay [3] it was about 100 µM.
As for `O=C(c1ccc(Cn2ccc3ncnc-3c2)o1)N(C1CCCCC1)C1CCCC1` [Example 3], the half-inhibitory concentration (IC50) in assay [2] is 2.8 µM; in assay [3], 10 to 100 µM.
One may read the inhibition as the percentage by which the read-out fell short of the control. For the compound `Cc1nnc2n1-c1ccc(Cl)cc1C(c1ccccc1Cl)=NC2` [Triazolam, triazolam, reference compound], the inhibition at 50 µM in assay [1] (read-out: inhibited ^3 H-PAF binding (triazolam compound inhibition control)) is about 50%.

Source of the values: patent US4990518A, “Pharmacologically active heteroaryl substituted imidazo (4,5-c) pyridines” (G. D. Searle & Co., priority 1989, dated 1991).
